Experimental data as given in patent US11154515B2, “Pharmaceutical compositions comprising cannabidiol and beta-caryophyllene and methods for their use” (priority 2017, dated 2021).

How the values were obtained:
IL-1β gene expression = IL-1β gene expression (RT-qPCR) in LPS-stimulated RAW 264.7 macrophages; type: cell-based, murine; conditions: for reduction of LPS-induced expression of IL-1β vs untreated, LPS-stimulated controls (FIG. 3B): CBD 0.1 μM, BCP 0.013 μM (p<0.01), combination 0.1 μM + 0.013 μM (7.7:1, p<0.001)
Protocol: RAW 264.7 cells were cultured in Dulbecco's Modified Eagle's Medium (high glucose DMEM, Sigma-Aldrich) supplemented with 10% fetal bovine serum (FBS), 1% L-glutamine, 1% Sodium-pyruvate, 1% Penicillin-Streptomycin (culture medium). The cells were maintained in T75 flasks at 37° C. in humidified air containing 5% CO2 in an incubator and passaged every second-third day.
For drug treatment and LPS stimulation, 200,000 cells/well were seeded in 1.5 mL culture medium in a 6-well plate and incubated to allow attachment to the cell culture plate. After attachment, cells were incubated with various concentrations of CBD (0.1 μM, 0.3 μM, 1 μM, 3 μM, 5 μM, 10 μM, and 30 μM) or BCP (0.001 μM, 0.01 μM, 0.013 μM, 0.1 μM, 0.3 μM, 1 μM, 3 μM, 5 μM, 10 μM, and 100 μM), or vehicle (control) for 2 hrs. After the 2 h incubation, 0.1 μg/mL LPS was added to each well to induce inflammation and cells were incubated with LPS for 24 hrs.
After the 24 h incubation with LPS, the cells were harvested and gene expression of the pro-inflammatory cytokines interleukin (IL)-1α, IL-1β were measured by quantitative real-time polymerase chain reaction (RT-qPCR) on a Roche Light Cycler 480 QPCR System (Roche Applied Sciences) using the 5′ nuclease assay. Total RNA was isolated using TRIzol (LifeTechnologies), DNase treatment was performed according to the manufacturer's protocol, and then 1 μg of total RNA was reverse-transcribed into cDNA using High Capacity cDNA Kit from Life Technologies Corporation. PCR amplification was performed using the TaqMan primers and probes (assay IDs: Mm00439620_m1 for murine Il1a; Mm00434228_m1 for murine Il1b, Mm00446190_m1 for murine 116, Mm00441263_m1 for murine Cxcl15/Il8). Expression of the housekeeping gene, Gapdh, was used (assay ID: […]) as an internal control. The amount of the transcripts was normalized to those of the housekeeping gene using the ΔCT method. Results are expressed as % decrease in the expression levels of IL1α and IL1β in drug-treated, LPS-stimulated groups compared to the expression of each cytokine gene in the vehicle-treated, LPS-stimulated group (regarded as 100%). All experiments were repeated 2-3 times.
For statistical analysis, data were analyzed and graphs were plotted using Origin Pro Plus 6.0 software (Microcal, Northampton, Mass., USA) and Student's two-tailed two samples t-test. p<0.05 values were regarded as significant differences.

[1] = system: OXA-induced ear edema, ACD mouse model; assay: Oxazolone-induced allergic contact dermatitis model, ear edema; type: in vivo; conditions: for OXA-induced edema formation: topically applied 1 μM
Protocol: Prednisolone was solved in 1:1 of DMSO/saline and was administered topically (15-15 μL to the inner and outer surface of the ears). All other test compounds were solved in 96% ethanol. All solutions of all the concentrations were prepared freshly on the first day of every experiment and were stored at 4° C., then shaken properly before the treatments.
Anesthesia was induced by ketamine (Richter Gedeon, Budapest, Hungary) (100 mg/kg i.p., repeated as required) with xylazine (Lavet Ltd., Budapest, Hungary) (5 mg/kg i.m.). Animals were sensitized on two consecutive days by painting 2% oxazolone (50-50 μL, Merck KGaA) on the shaved abdomen. On the 6th day the right ears were smeared with 2% oxazolone (OXA) dissolved in 96% ethanol: 15-15 μL solution was applied on each of the inner and outer surfaces. Control ears were treated with 96% ethanol in the same way. Drug-treated groups were treated with 15-15 μL of drug solution smeared to the inner and outer side of the ears every 4 hrs of the experiment after oxazolone treatment. A schematic of the experimental protocol is provided in FIG. 24 and the experimental groups are defined below. • (a) Group 1: Ethanol-treated Controls: left ear: 96% ethanol, right ear: 2% oxazolone • (b) Group 2: 1 μM CBD • (c) Group 3: 10 μM CBD • (d) Group 4: 1 μM HU101 • (e) Group 5: 10 μMHU101
Ear thickness was measured with an engineer's micrometer, with 0.1 mm accuracy, before challenge with test agents and after the challenge at different time points. Data are expressed as % increase of ear thickness compared to the initial values.
Results are expressed as mean±SEM. Comparisons between different treatment groups were performed using two-way ANOVA followed by Sidak's post hoc test for skin thickness and one-way ANOVA followed by Bonferroni's post hoc test for MPO and vascular leakage. * p<0.05 was considered to be significant.

RAW-Blue™ cells = assay: MTT cell viability assay, RAW-Blue™ cells; conditions: CBD 30 μM; BCP 300 μM
[2] = Table 3A experiment, single agent 0.1 μM
[3] = Table 3A experiment, single agent 1 μM
[4] = Table 3A experiment, single agent 5 μM
[5] = Table 3A experiment, single agent 10 μM
[6] = Table 3B experiment, single agent 0.1 μM
[7] = Table 3B experiment, single agent 0.3 μM
[8] = Table 3B experiment, single agent 1.0 μM
[9] = Table 3B experiment, single agent 3.0 μM
[10] = Table 3B experiment, single agent 10 μM
[11] = Table 4 Exp. 1: CBD 0.1 μM, BCP 0.013 μM, CBD + BCP 0.1 μM + 0.013 μM
[12] = Table 4 Exp. 2: CBD 1 μM, BCP 0.13 μM, CBD + BCP 1 μM + 0.13 μM

SMILES	reduction of LPS-induced expression of IL-1β vs untreated, LPS-stimulated controls (FIG. 3B) (IL-1β gene expression)	% decrease in IL1β expression (IL-1β gene expression; [2]) [%]	% decrease in IL1β expression (IL-1β gene expression; [3]) [%]	% decrease in IL1β expression (IL-1β gene expression; [4]) [%]	% decrease in IL1β expression (IL-1β gene expression; [5]) [%]	% decrease in IL1β expression (IL-1β gene expression; [6]) [%]	% decrease in IL1β expression (IL-1β gene expression; [7]) [%]	% decrease in IL1β expression (IL-1β gene expression; [8]) [%]	% decrease in IL1β expression (IL-1β gene expression; [9]) [%]	% decrease in IL1β expression (IL-1β gene expression; [10]) [%]	% decrease in IL-1β gene expression (IL-1β gene expression; [11]) [%]	% decrease in IL-1β gene expression (IL-1β gene expression; [12]) [%]	further results
C=C1CC/C=C(\C)CC[C@H]2[C@H]1CC2(C)C [BCP, (E)-beta-caryophyllene]	did significantly reduce	11	19	62	7	1.8 ± 0.2	5.8 ± 1.2	0	0	8.2 ± 4.1	34	0	% Inhibition BCP Alone (IL-1β gene expression) (IL-1β gene expression; 0.001 μM BCP alone): 0%; % Inhibition BCP Alone (IL-1β gene expression) (IL-1β gene expression; 0.01 μM BCP alone): 0%; % Inhibition BCP Alone (IL-1β gene expression) (IL-1β gene expression; 0.1 μM BCP alone): 1.8 ± 0.2%; % Inhibition BCP Alone (IL-1β gene expression) (IL-1β gene expression; 0.3 μM BCP alone): 5.8 ± 1.2%; % Inhibition BCP Alone (IL-1β gene expression) (IL-1β gene expression; 1 μM BCP alone): 0%; % Inhibition BCP Alone (IL-1β gene expression) (IL-1β gene expression; 3 μM BCP alone): 0%; % Inhibition BCP Alone (IL-1β gene expression) (IL-1β gene expression; 10 μM BCP alone): 8.2 ± 4.1%; % Inhibition BCP Alone (IL-1β gene expression) (IL-1β gene expression; 100 μM BCP alone, * indicates possibly cytotoxicity): *94.2 ± 11.3%; % decrease in IL1β expression (IL-1β gene expression; Table 3B experiment, single agent 0.001 μM): 0%; % decrease in IL1β expression (IL-1β gene expression; Table 3B experiment, single agent 0.01 μM): 0%; % decrease in IL1β expression (IL-1β gene expression; Table 3B experiment, single agent 100 μM): 94.2 ± 11.3%
C=C(C)[C@@H]1CCC(C)=C[C@H]1c1c(O)cc(CCCCC)cc1O [CBD, cannabidiol]	did not significantly reduce	19	11	31	33	5.8 ± 1.4	9 ± 3.6	39.2 ± 10.1	85.6 ± 10	92.2 ± 8.4	13	55	Effect in ACD mouse model, significance of ear edema difference ([1]; OXA + CBD 1 μM vs. OXA + CBD 10 μM, 56 h): * (* p ≤ 0.05); Effect in ACD mouse model, significance of ear edema difference ([1]; OXA vs. OXA + CBD 1 μM, 24 h): ** (** p ≤ 0.01); OXA-induced edema formation ([1]; 24 hr time-point): significantly prevented; OXA-induced edema formation ([1]; later time-points): only minor; anti-inflammatory effect on OXA-induced edema ([1]; topically applied 10 μM): did not exert any anti-inflammatory effect; % Inhibition CBD Alone (IL-1β gene expression) (IL-1β gene expression; 0.1 μM CBD alone): 5.8 ± 1.4%; % Inhibition CBD Alone (IL-1β gene expression) (IL-1β gene expression; 0.3 μM CBD alone): 9 ± 3.6%; % Inhibition CBD Alone (IL-1β gene expression) (IL-1β gene expression; 1 μM CBD alone): 39.2 ± 10.1%; % Inhibition CBD Alone (IL-1β gene expression) (IL-1β gene expression; 3 μM CBD alone): 85.6 ± 10%; % Inhibition CBD Alone (IL-1β gene expression) (IL-1β gene expression; 10 μM CBD alone): 92.2 ± 8.4%; toxicity (as determined by MTT assay) (RAW-Blue™ cells): appeared to induce toxicity
